Measured values as given in patent US20240208950A1, “COMPOSITIONS AND METHODS FOR TREATMENT OF CERVICAL AND OVARIAN CANCER” (SOUTH DAKOTA BOARD OF REGENTS, priority 2021, published 2024).

Columns and labels:
SiHa cells [1] = experiment: Cell invasion assay (Boyden chamber and xCELLigence), SiHa; format: cell-based, human
Excerpt: FIGS. 8A and 8B show the effect of ORM-Br on invasion of CaSki (FIG. 8A) and SiHa (FIG. 8B) cell lines in Boyden chamber and xCELLigence assay. The images represent the invaded cells of control and ORM-Br-treated CaSki and SiHa cells as determined by Boyden Chamber kit. The magnification was at 20 for the images of FIGS. 8A and 8B.

[2] = system: CaSki cells derived xenograft tumors; experiment: Orthotopic xenograft mouse model of cervical cancer; format: in vivo, female athymic nude mice; details: 250 μg/mice intra-tumoral
β-catenin in SiHa cells = experiment: Western blot of β-catenin in nuclear and cytoplasmic extracts, SiHa; format: cell-based, human; details: 15 μM, 24 hours
Protocol: In the Example shown at FIGS. 9A-9E, cells were subjected to treatment with 15 μM concentration of ORM-Br for 24 hours, nuclear extracts were prepared and western blot analysis were used to detect the protein levels of β-catenin. […] Western blots were reprobed with β-actin and Histone H3 antibodies as an internal control.
The nuclear and cytoplasmic lysates were prepared using respective buffers. The cell lysates (40 μg) were subjected to SDS-PAGE and blotted on PVDF membrane. The membranes were further blocked in 5% milk diluted in 1×TBST solution for 1 hour and incubated overnight in primary antibodies. The following day, the membranes were washed and incubated with secondary antibodies for 1 hour, washed again and developed on a UVP system using chemi-luminiscent reagents.
The EMT process in a cell is driven by growth factors or other signaling proteins such as Wnt/beta-catenin and extracellular matrix component that may stimulate cellular growth and migration. The effect of Br-ORM on β-catenin signaling was examined.
FIG. 15. Effect OF Br-ORM on β-catenin signaling and molecular docking of Br-ORM with β-catenin. Effect of Br-ORM on β-catenin distribution in cytoplasm and nucleus of CaSki and SiHa cells. […] Effect of Br-ORM on β-catenin localization in CaSki cells as determined by confocal microscopy (FIG. 15B(i)-(ii)). […]

SiHa cells [3] = experiment: Cell proliferation assay (MTS), SiHa; format: cell-based, human; details: 1-20 μM, 24 hours
Protocol: The effect of Br-ORM on CaSki and SiHa cells proliferation was performed using the MTS assay. Briefly, cells were seeded at a density of 5×10^3 cells per well in 96 well plate and allowed to stand overnight at 37° C. and 5% CO2 incubator. Next day, cells were treated with different concentrations of Br-ORM (1, 5, 10 and 20 μM). DMSO was used as a vehicle for the treatment of control cells. Twenty four hours post-treatment, 20 μL of MTS reagent (5 mg/mL) was added in each well and further incubated the plate for 2 hours in a CO2 incubator. Absorbance was taken after 2 hours at […] (SpectraMax M2 spectrophotometer, Molecular Devices, Sunnyvale, CA, USA). The experiment was performed in triplicates. Results were represented as percent viability with respect to the control group. […]
FIG. 13. […] Cell viability was assessed by MTS assay. […] Bar graphs indicating quantification of colony formation in CaSki (i), and SiHa (ii) cells of cervical cancer with respect to vehicle control. […] Briefly, cervical cancer cells were treated with Br-ORM (10 μM) for 24 hours and the apoptosis inducing effect of Br-ORM was analyzed by Annexin V staining. […] The equal loading of protein in each lane was determined by probing the blots with β-actin antibody (FIG. 13F). […] Br-ORM arrests cell cycle in G1/S phase as determined by flow cytometry. […]

[4] = three times per week, vs control

COc1ccc2c(c1)OC(C)(C)C(c1ccc(Br)cc1)C2c1ccc(OCCN2CCCC2)cc1 (stereo not shown) [ORM-Br]
cell invasion (SiHa cells [1]): inhibits the invasion | tumor volume [2, 4]: significantly (p<0.05) reduced | tumor weight [2, 4]: significantly (p<0.05) reduced | expression of E-cadherin in xenograft tumors (IHC) ([2]; excised tumors): increase in the expression of E-cadherin | expression of miR-200a in excised xenograft tumors (in situ hybridization) ([2]; excised tumors): Increased expression of miR-200a | expression of β-catenin, vimentin, snail, slug, HPV-E6, HPV-E7, and PCNA in xenograft tumors (IHC) ([2]; excised tumors): significant downregulation | nuclear β-catenin expression (β-catenin in SiHa cells): decrease in expression of nuclear β-catenin | nuclear β-catenin expression (β-catenin in SiHa cells; listed as Br-ORM): inhibited nuclear β-catenin | cell viability / growth (SiHa cells [3]): inhibits the growth | cell viability / growth (SiHa cells [3]; listed as Br-ORM): dose dependently inhibited the cell viability
